From US9149475B2, “Protein kinase C inhibitors and uses thereof” (Rigel Pharmaceuticals, Inc., priority 2009, dated 2015)
pIC50: −log10 of the molar value.

Test system: Human primary T cells
Assay: IL-2 ELISA, human primary T cell, anti-CD3+CD28+ (whole cell assay)
Type: cell-based
Conditions: human primary T cells stimulated with anti-CD3 + anti-CD28, 24 hours
Procedure, shortened: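 IL-2 secreted over 24 h at 37° C was quantified by ELISA after plate-bound αCD3 (1 μg/ml) and αCD28 (5 μg/ml) stimulation, or PMA (0.5 ng/ml) with ionomycin (0.1 μM) as counter-screen. Cells were IL-2-starved primary human T cells, expanded from volunteer PBMC and exposed to compound for 1 hr beforehand.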

Compound | pIC50 (Homo sapiens, T-cell, 24 h) | pIC50
Cn1nnnc1-c1cc(Nc2ncc(F)c(NC3CC(C)(C)NC(C)(C)C3)n2)ccc1F [III-120, 5-fluoro-N2-(4-fluoro-3-(1-methyl-1H-tetrazol-5-yl)phenyl)-N4-(2,2,6,6-tetramethylpiperidin-4-yl)pyrimidine-2,4-diamine] | 6.00 to 6.30 | –
Cn1nnnc1-c1cc(Nc2ncc(F)c(NC3CC(C)(C)NC(C)(C)C3)n2)ccc1OC1CCOCC1 [III-124, 5-fluoro-N2-(3-(1-methyl-1H-tetrazol-5-yl)-4-(tetrahydro-2H-pyran-4-yloxy)phenyl)-N4-(2,2,6,6-tetramethylpiperidin-4-yl)pyrimidine-2,4-diamine] | < 6.00 | –
CN1C(C)(C)CC(Nc2nc(Nc3ccc(OC4CCOCC4)c(-c4nnnn4C)c3)ncc2F)CC1(C)C [III-125, 5-fluoro-N2-(3-(1-methyl-1H-tetrazol-5-yl)-4-(tetrahydro-2H-pyran-4-yloxy)phenyl)-N4-(1,2,2,6,6-pentamethylpiperidin-4-yl)pyrimidine-2,4-diamine] | 6.30 to 6.60 | –
Cn1nnnc1-c1cc(Nc2ncc(F)c(NC3CC(C)(C)NC(C)(C)C3)n2)ccc1OC1COC1 [III-126, 5-fluoro-N2-(3-(1-methyl-1H-tetrazol-5-yl)-4-(oxetan-3-yloxy)phenyl)-N4-(2,2,6,6-tetramethylpiperidin-4-yl)pyrimidine-2,4-diamine] | < 6.00 | –
COCCn1nnnc1-c1cc(Nc2ncc(F)c(NC3CC(C)(C)N(C)C(C)(C)C3)n2)ccc1F [III-128, 5-fluoro-N2-(4-fluoro-3-(1-(2-methoxyethyl)-1H-tetrazol-5-yl)phenyl)-N4-(1,2,2,6,6-pentamethylpiperidin-4-yl)pyrimidine-2,4-diamine] | 6.30 to 6.60 | –
COCCn1nnnc1-c1cc(Nc2ncc(F)c(NC3CC(C)(C)NC(C)(C)C3)n2)ccc1F [III-129, 5-fluoro-N2-(4-fluoro-3-(1-(2-methoxyethyl)-1H-tetrazol-5-yl)phenyl)-N4-(2,2,6,6-tetramethylpiperidin-4-yl)pyrimidine-2,4-diamine] | < 6.00 | –
Cc1cc(Nc2ncc(F)c(NC3CC(C)(C)NC(C)(C)C3)n2)cc(-c2nnnn2C)c1 [III-132, 5-fluoro-N2-(3-methyl-5-(1-methyl-1H-tetrazol-5-yl)phenyl)-N4-(2,2,6,6-tetramethylpiperidin-4-yl)pyrimidine-2,4-diamine] | 6.30 to 6.60 | –
Cn1nnnc1-c1cc(Nc2ncc(F)c(NC3CC(C)(C)NC(C)(C)C3)n2)cc(F)c1F [III-136, N2-(3,4-difluoro-5-(1-methyl-1H-tetrazol-5-yl)phenyl)-5-fluoro-N4-(2,2,6,6-tetramethylpiperidin-4-yl)pyrimidine-2,4-diamine] | 6.30 to 6.60 | –
Cn1nnnc1-c1cc(F)cc(Nc2ncc(F)c(NC3CC(C)(C)NC(C)(C)C3)n2)c1 [III-138, 5-fluoro-N2-(3-fluoro-5-(1-methyl-1H-tetrazol-5-yl)phenyl)-N4-(2,2,6,6-tetramethylpiperidin-4-yl)pyrimidine-2,4-diamine] | 6.00 to 6.30 | –
CC(C)Oc1c(F)cc(Nc2ncc(F)c(NC3CC(C)(C)NC(C)(C)C3)n2)cc1-c1nnnn1C [III-142, 5-fluoro-N2-(3-fluoro-4-isopropoxy-5-(1-methyl-1H-tetrazol-5-yl)phenyl)-N4-(2,2,6,6-tetramethylpiperidin-4-yl)pyrimidine-2,4-diamine] | 6.30 to 6.60 | –
Cn1nnnc1-c1cc(C#N)cc(Nc2ncc(F)c(NC3CC(C)(C)NC(C)(C)C3)n2)c1 [III-143, 3-(5-fluoro-4-(2,2,6,6-tetramethylpiperidin-4-ylamino)pyrimidin-2-ylamino)-5-(1-methyl-1H-tetrazol-5-yl)benzonitrile] | 6.00 to 6.30 | –
CN1C(C)(C)CC(Nc2nc(Nc3cc(C#N)cc(-c4nnnn4C)c3)ncc2F)CC1(C)C [III-144, 3-(5-fluoro-4-(1,2,2,6,6-pentamethylpiperidin-4-ylamino)pyrimidin-2-ylamino)-5-(1-methyl-1H-tetrazol-5-yl)benzonitrile] | > 6.60 | –
Cn1nnnc1-c1cc(Nc2ncc(F)c(NC3CC(C)(C)NC(C)(C)C3)n2)cc(OC2COC2)c1 [III-145, 5-fluoro-N2-(3-(1-methyl-1H-tetrazol-5-yl)-5-(oxetan-3-yloxy)phenyl)-N4-(2,2,6,6-tetramethylpiperidin-4-yl)pyrimidine-2,4-diamine] | < 6.00 | –
CN1C(C)(C)CC(Nc2nc(Nc3cc(OC4COC4)cc(-c4nnnn4C)c3)ncc2F)CC1(C)C [III-146, 5-fluoro-N2-(3-(1-methyl-1H-tetrazol-5-yl)-5-(oxetan-3-yloxy)phenyl)-N4-(1,2,2,6,6-pentamethylpiperidin-4-yl)pyrimidine-2,4-diamine] | 6.30 to 6.60 | –
Cn1nnnc1-c1cc(Nc2ncc(F)c(NC3CC(C)(C)NC(C)(C)C3)n2)cc(C2CC2)c1 [III-147, N2-(3-cyclopropyl-5-(1-methyl-1H-tetrazol-5-yl)phenyl)-5-fluoro-N4-(2,2,6,6-tetramethylpiperidin-4-yl)pyrimidine-2,4-diamine] | > 6.60 | –
N2-(3,5-Dimethoxyphenyl)-5-fluoro-N4-(1-N-oxide-2,2,6,6-pentamethylpiperidin-4-yl)-2,4-pyrimidinediamine [Compound I-111] | – | < 6.00

The next lines start with the values.

pIC50 (Homo sapiens, T-cell, 24 h) | pIC50 | Compound
> 6.60 | – | CN1C(C)(C)CC(Nc2nc(Nc3ccc(F)c(-c4nnnn4C)c3)ncc2F)CC1(C)C [III-121, 5-fluoro-N2-(4-fluoro-3-(1-methyl-1H-tetrazol-5-yl)phenyl)-N4-(1,2,2,6,6-pentamethylpiperidin-4-yl)pyrimidine-2,4-diamine]
> 6.60 | – | CC(C)Oc1ccc(Nc2ncc(F)c(NC3CC(C)(C)NC(C)(C)C3)n2)cc1-c1nnnn1C [III-122, 5-fluoro-N2-(4-isopropoxy-3-(1-methyl-1H-tetrazol-5-yl)phenyl)-N4-(2,2,6,6-tetramethylpiperidin-4-yl)pyrimidine-2,4-diamine]
> 6.60 | – | CC(C)Oc1ccc(Nc2ncc(F)c(NC3CC(C)(C)N(C)C(C)(C)C3)n2)cc1-c1nnnn1C [III-123, 5-fluoro-N2-(4-isopropoxy-3-(1-methyl-1H-tetrazol-5-yl)phenyl)-N4-(1,2,2,6,6-pentamethylpiperidin-4-yl)pyrimidine-2,4-diamine]
> 6.60 | – | CN1C(C)(C)CC(Nc2nc(Nc3ccc(OC4COC4)c(-c4nnnn4C)c3)ncc2F)CC1(C)C [III-127, 5-fluoro-N2-(3-(1-methyl-1H-tetrazol-5-yl)-4-(oxetan-3-yloxy)phenyl)-N4-(1,2,2,6,6-pentamethylpiperidin-4-yl)pyrimidine-2,4-diamine]
> 6.60 | – | Cn1nnnc1-c1cc(Nc2ncc(F)c(NC3CC(C)(C)NC(C)(C)C3)n2)ccc1Cl [III-130, N2-(4-chloro-3-(1-methyl-1H-tetrazol-5-yl)phenyl)-5-fluoro-N4-(2,2,6,6-tetramethylpiperidin-4-yl)pyrimidine-2,4-diamine]
> 6.60 | – | CN1C(C)(C)CC(Nc2nc(Nc3ccc(Cl)c(-c4nnnn4C)c3)ncc2F)CC1(C)C [III-131, N2-(4-chloro-3-(1-methyl-1H-tetrazol-5-yl)phenyl)-5-fluoro-N4-(1,2,2,6,6-pentamethylpiperidin-4-yl)pyrimidine-2,4-diamine]
> 6.60 | – | Cc1cc(Nc2ncc(F)c(NC3CC(C)(C)N(C)C(C)(C)C3)n2)cc(-c2nnnn2C)c1 [III-133, 5-fluoro-N2-(3-methyl-5-(1-methyl-1H-tetrazol-5-yl)phenyl)-N4-(1,2,2,6,6-pentamethylpiperidin-4-yl)pyrimidine-2,4-diamine]
> 6.60 | – | Cn1nnnc1-c1cc(Cl)cc(Nc2ncc(F)c(NC3CC(C)(C)NC(C)(C)C3)n2)c1 [III-134, N2-(3-chloro-5-(1-methyl-1H-tetrazol-5-yl)phenyl)-5-fluoro-N4-(2,2,6,6-tetramethylpiperidin-4-yl)pyrimidine-2,4-diamine]
> 6.60 | – | CN1C(C)(C)CC(Nc2nc(Nc3cc(Cl)cc(-c4nnnn4C)c3)ncc2F)CC1(C)C [III-135, N2-(3-chloro-5-(1-methyl-1H-tetrazol-5-yl)phenyl)-5-fluoro-N4-(1,2,2,6,6-pentamethylpiperidin-4-yl)pyrimidine-2,4-diamine]
> 6.60 | – | CN1C(C)(C)CC(Nc2nc(Nc3cc(F)c(F)c(-c4nnnn4C)c3)ncc2F)CC1(C)C [III-137, N2-(3,4-difluoro-5-(1-methyl-1H-tetrazol-5-yl)phenyl)-5-fluoro-N4-(1,2,2,6,6-pentamethylpiperidin-4-yl)pyrimidine-2,4-diamine]
> 6.60 | – | CN1C(C)(C)CC(Nc2nc(Nc3cc(F)cc(-c4nnnn4C)c3)ncc2F)CC1(C)C [III-139, 5-fluoro-N2-(3-fluoro-5-(1-methyl-1H-tetrazol-5-yl)phenyl)-N4-(1,2,2,6,6-pentamethylpiperidin-4-yl)pyrimidine-2,4-diamine]
> 6.60 | – | Cn1nnnc1-c1cc(Nc2ncc(F)c(NC3CC(C)(C)NC(C)(C)C3)n2)cc(C(F)(F)F)c1 [III-140, 5-fluoro-N2-(3-(1-methyl-1H-tetrazol-5-yl)-5-(trifluoromethyl)phenyl)-N4-(2,2,6,6-tetramethylpiperidin-4-yl)pyrimidine-2,4-diamine]
> 6.60 | – | CN1C(C)(C)CC(Nc2nc(Nc3cc(-c4nnnn4C)cc(C(F)(F)F)c3)ncc2F)CC1(C)C [III-141, 5-fluoro-N2-(3-(1-methyl-1H-tetrazol-5-yl)-5-(trifluoromethyl)phenyl)-N4-(1,2,2,6,6-pentamethylpiperidin-4-yl)pyrimidine-2,4-diamine]
